The record followed here is patent publication US12691101B2, “Compound and method for preventing or treating of respiratory diseases comprising the same as an active ingredient” (YONSEI UNIVERSITY, UNIVERSITY - INDUSTRY FOUNDATION (UIF), priority 2019, dated 2026).

Series [1] deals with T1, hERG (Kv11.1) potassium channel (Homo sapiens, UniProt Q12809).
T1 construct: expressed in transfected cells
Briefly: hERG potassium channel activity, thallium flux in HEK293T cells. It is filed as cell-based. The protocol: (§1) (A) The inhibition of mouse pendrin (mPDS)-mediated Cl^−/I^− exchange activity by F56 was measured in CHO-K1 cells (mean±S.E., n=5). The indicated concentration of F56 was pretreated for 10 minutes. (B) Summary of dose-response for inhibition of the human pendrin (hPDS)-mediated (closed circle, FIG. (a), C) and mPDS-mediated (open circle) Cl^−/I^− exchange activity. (C-F) Representative traces of intracellular pH in CHO-K1 cells expressing SLC26A3, SLC26A6, SLC26A7 and SLC26A9 were shown. The application of Cl^− free solution induced intracellular alkalization by Cl^−/HCO3^− exchange. The indicated concentration of F56 was pretreated for 10 minutes. (G) the effect of F56 (100 μM) on the CFTR chloride channel activity was measured in FRT cells expressing human CFTR. […] (H) The effect of F56 (100 μM) on the AN01 chloride channel activity was measured in FRT cells expressing human AN01. […] (I) The effect of F56 on the hERG (Kv11.1) potassium channel activity was measured in HEK293T cells expressing human Kv11.1 (mean±S.E., n=4). […] (J) The effect of F56 on the 5-HT2A channel activity was measured in FRT cells expressing human 5-HT2A (mean±S.E., n=4). […]
(§2) (A) The effect of F10 (30 μM) on the CFTR channel was measured in FRT cells expressing human CFTR and mutant YFP. […] (B) The effect of F10 (30 μM) on the AN01 channel activity was measured in FRT cells expressing human and mutant YFP. […]
A general note: The hERG channel carries a current that helps repolarise heart muscle cells.

The subject of a further series is MUC5AC mRNA. In words: Real-time PCR of MUC5AC mRNA in IL-4-treated HNE cells. It is filed as cell-based, human. The following applies: IL-4-treated HNE cells (F10: 120 hours after treatment). The protocol:
(A) The MUC5AC mRNA expression level was determined at the indicated time after treatment of F56 ([…]) in IL-4 (10 ng/ml)-treated HNE cells (mean±S.E., n=4). (B) Periodic acid-Schiff (PAS) staining showing goblet cell hyperplasia of IL-4 and IL-13 (10 ng/ml)-treated HNE cells in presence or absence of F56 ([…]) at Day 7. (C) Measurement of the total volume of ASL and fluid meniscus in HNE cells expressing wild-type (wt) or mutant (mt) PDS. The HNE cells were treated with IL-4 (10 ng/ml, 48 hours) in presence or absence of […]. (D) Representative image of a transwell insert having normal HNE cells. Arrows indicate the fluid meniscus of HNE cells treated with IL-4 (10 ng/ml, 48 hours) in presence or absence of […]. (E) Representative protein expression result of pendrin in IL-4 and IL-13-treated HNE cells. […]
The MUC5AC mRNA expression level was determined in 120 hours after F10 treatment by real-time quantitative PCR in IL-4-treated HNE cells.
The total messenger RNA (mRNA) was extracted using TRIzol reagent (Invitrogen, Carlsbad, CA, USA), and was reverse-transcribed using a random hexamer primer, an oligo(dT) primer and SuperScript® III reverse transcriptase (Invitrogen). Quantitative real-time PCR was performed using StepOnePlus Real-Time PCR system (Applied Biosystems, Foster City, CA, USA) and Thunderbird SYBR qPCR mix (Tokyobo, Osaka, Japan). […]
A general note: In qPCR the cycle at which signal appears reflects the starting amount.

The target in another series is T2, human AN01 (Homo sapiens, UniProt Q5XXA6, DEL476-501).
T2 construct: expressed in transfected cells; host or cells: FRT cells
T2 sequence (Q5XXA6 with tags, fused parts or gaps isoform Q5XXA6-5 DEL539-564): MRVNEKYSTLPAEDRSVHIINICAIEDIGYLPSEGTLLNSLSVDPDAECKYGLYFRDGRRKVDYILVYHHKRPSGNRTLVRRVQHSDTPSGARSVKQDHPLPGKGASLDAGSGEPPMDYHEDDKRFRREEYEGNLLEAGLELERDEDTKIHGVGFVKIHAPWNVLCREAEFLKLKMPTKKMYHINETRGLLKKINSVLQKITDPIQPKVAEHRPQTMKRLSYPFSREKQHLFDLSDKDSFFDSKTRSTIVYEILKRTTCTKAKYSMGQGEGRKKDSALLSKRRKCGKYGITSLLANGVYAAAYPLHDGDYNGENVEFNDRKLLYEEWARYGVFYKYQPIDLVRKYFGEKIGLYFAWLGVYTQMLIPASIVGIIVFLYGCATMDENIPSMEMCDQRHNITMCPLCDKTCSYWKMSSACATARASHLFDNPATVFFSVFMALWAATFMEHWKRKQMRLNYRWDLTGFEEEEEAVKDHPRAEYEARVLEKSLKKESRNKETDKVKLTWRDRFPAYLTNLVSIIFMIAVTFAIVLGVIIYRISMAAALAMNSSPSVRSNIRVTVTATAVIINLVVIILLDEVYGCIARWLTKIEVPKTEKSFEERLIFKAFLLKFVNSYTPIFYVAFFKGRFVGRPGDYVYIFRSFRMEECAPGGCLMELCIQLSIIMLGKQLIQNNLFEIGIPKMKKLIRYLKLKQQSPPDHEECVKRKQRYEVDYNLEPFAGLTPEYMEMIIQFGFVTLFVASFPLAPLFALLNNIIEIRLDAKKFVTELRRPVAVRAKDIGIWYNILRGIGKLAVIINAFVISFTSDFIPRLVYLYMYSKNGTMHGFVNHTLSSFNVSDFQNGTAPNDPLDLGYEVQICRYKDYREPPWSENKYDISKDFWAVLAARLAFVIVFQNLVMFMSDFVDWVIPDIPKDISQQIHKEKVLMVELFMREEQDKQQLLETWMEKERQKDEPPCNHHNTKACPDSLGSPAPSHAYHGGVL
Briefly: AN01 chloride channel activity in FRT cells. The class given is cell-based. On the procedure: as §1, §2

T1 sequence (Q12809 whole entry): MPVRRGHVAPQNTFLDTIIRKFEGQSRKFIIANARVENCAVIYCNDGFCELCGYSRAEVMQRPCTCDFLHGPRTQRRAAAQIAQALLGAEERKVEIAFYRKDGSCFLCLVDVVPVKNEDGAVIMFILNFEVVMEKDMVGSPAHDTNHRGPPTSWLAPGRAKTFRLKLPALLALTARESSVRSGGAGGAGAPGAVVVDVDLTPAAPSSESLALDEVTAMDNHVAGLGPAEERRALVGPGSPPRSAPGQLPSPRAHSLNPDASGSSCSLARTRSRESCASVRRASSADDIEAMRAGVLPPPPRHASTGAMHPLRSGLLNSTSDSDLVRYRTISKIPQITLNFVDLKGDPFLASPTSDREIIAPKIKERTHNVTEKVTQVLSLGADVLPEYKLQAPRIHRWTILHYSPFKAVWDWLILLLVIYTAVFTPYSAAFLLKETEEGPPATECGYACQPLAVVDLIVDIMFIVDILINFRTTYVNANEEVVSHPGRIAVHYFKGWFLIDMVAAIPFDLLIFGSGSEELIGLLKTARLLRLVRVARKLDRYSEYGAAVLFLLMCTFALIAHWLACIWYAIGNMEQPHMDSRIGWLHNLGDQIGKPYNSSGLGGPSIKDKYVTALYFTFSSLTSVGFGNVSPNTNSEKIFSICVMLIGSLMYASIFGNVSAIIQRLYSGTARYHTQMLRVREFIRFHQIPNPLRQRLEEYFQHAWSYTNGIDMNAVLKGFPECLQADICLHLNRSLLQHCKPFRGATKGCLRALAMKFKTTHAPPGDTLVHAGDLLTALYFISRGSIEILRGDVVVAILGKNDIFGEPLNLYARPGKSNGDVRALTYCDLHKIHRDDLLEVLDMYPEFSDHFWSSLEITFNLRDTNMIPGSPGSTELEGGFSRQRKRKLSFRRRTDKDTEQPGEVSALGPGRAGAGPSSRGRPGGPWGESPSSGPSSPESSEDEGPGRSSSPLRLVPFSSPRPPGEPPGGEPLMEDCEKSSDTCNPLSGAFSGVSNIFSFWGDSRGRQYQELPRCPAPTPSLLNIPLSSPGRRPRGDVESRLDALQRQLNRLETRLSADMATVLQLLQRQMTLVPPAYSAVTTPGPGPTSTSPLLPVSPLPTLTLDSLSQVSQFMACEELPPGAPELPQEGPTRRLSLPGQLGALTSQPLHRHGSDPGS

Take `CC(C)(C)c1ccc(C2=NC(=Cc3ccc[nH]3)C(=O)O2)cc1` [F10, 4-((1H-pyrrol-2-yl)methylene)-2-(4-(tert-butyl)phenyl)oxazol-5 (4H)-one]: the “effect on hERG channel activity” value in series [1] (30 μM) is reported as “did not show any effect”. The “mRNA expression of IL-4-induced MUC5AC” value in the series on MUC5AC mRNA is listed as “reduced the mRNA expression of MUC5AC in a concentration-dependent manner”. Further, on human AN01 (30 μM, FRT cells with mutant YFP), the “effect on AN01 channel activity” value was “did not show any effect”.
As for `CC(C)(C)c1ccc(C2=NC(=Cc3cccs3)C(=O)O2)cc1` [F56, 2-(4-(tert-butyl)phenyl)-4-(thiophen-2-ylmethylene)oxazol-5(4H)-one], the “effect on hERG channel activity” value in series [1] (pretreated 10 minutes) is “not affected”. In addition, the “mRNA expression of IL-4-induced MUC5AC” value with MUC5AC mRNA is “significantly reduced”. In addition, the “effect on AN01 activity” value at human AN01 (100 μM, FRT cells, ATP-activated) is on record as “not affected”.
